Laboratory results reported in patent publication US7923438B2 (priority 2006, dated 2011).
Like-named read-outs stand apart in the source and are kept apart here.

Key:
Type in all cases: cell-based
[1] = test system: Nocardia brasiliensis (ATCC 19296); assay: microbe, parasite or virus in culture
[2] = test system: Mycobacterium phlei (ATCC 1298); assay: microbe, parasite or virus in culture
[3] = test system: Nocardia abscessus (BAA 279); assay: microbe, parasite or virus in culture
[4] = test system: S. aureus (control strain); assay: Serial dilution test for MIC, Mueller-Hinton broth (control strain)
[5] = test system: Mycobacterium smegmatis (FH 6498); assay: Serial dilution test for MIC, Mueller-Hinton broth
[6] = test system: Corynebacterium diphtheriae (ATCC 27010); assay: microbe, parasite or virus in culture
[7] = 6.25 μg per disc (17 nmol per disc), 48 hrs at 37° C.
[8] = serial dilution, 48 hours at 37° C., approximately 10 Ex 6 CFU/ml

## CCCC1=C2C(=O)OC[C@@H]2COP(=O)(OCCCCCCCCCCCCCC(C)C)O1 (stereo partly shown) [Cyclipostin T2]
[1]
  Inhibition zone size, Nocardia brasiliensis (ATCC 19296): 39 mm
[2]
  Inhibition zone size, Mycobacterium phlei (ATCC 1298): 47 mm
[3]
  Inhibition zone size, Nocardia abscessus (BAA 279): 10 mm
[4]
  minimum inhibitory concentration (MIC), S. aureus (control strain): >64
[5]
  minimum inhibitory concentration (MIC), Mycobacterium smegmatis (FH 6498): <0.5
[6]
  Inhibition zone size, Corynebacterium diphtheriae (ATCC 27010): 20 mm

## CCCCCCCCCCCCCCCOP1(=O)OC[C@H]2COC(=O)C2=C(C)O1 (stereo partly shown) [Cyclipostin R]
[4]
  minimum inhibitory concentration (MIC), S. aureus (control strain): >64
[5]
  minimum inhibitory concentration (MIC), Mycobacterium smegmatis (FH 6498): <0.5

## CO[C@H]1/C=C/O[C@@]2(C)Oc3c(C)c(O)c4c(O)c(c(/C=N/N5CCN(C)CC5)c(O)c4c3C2=O)NC(=O)/C(C)=C\C=C\[C@H](C)[C@H](O)[C@@H](C)[C@@H](O)[C@@H](C)[C@H](OC(C)=O)[C@@H]1C [Rifampicin, reference compound]
[1]; Nocardia brasiliensis, ATCC19296, 30 μg per disc (36 nmol per disc), 48 hrs at 37° C., read-out: Inhibition zone size, Nocardia brasiliensis (ATCC 19296)
  zone of inhibition at 30 µg/disc: 10 mm
[2]; Mycolicibacterium phlei, ATCC1298, 30 μg per disc (36 nmol per disc), 48 hrs at 37° C., read-out: Inhibition zone size, Mycobacterium phlei (ATCC 1298)
  zone of inhibition at 30 µg/disc: 55 mm
[3]; Nocardia abscessus, BAA279, 30 μg per disc (36 nmol per disc), 48 hrs at 37° C., read-out: Inhibition zone size, Nocardia abscessus (BAA 279)
  zone of inhibition at 30 µg/disc: 12 mm
[6]; Corynebacterium diphtheriae, ATCC27010, 30 μg per disc (36 nmol per disc), 48 hrs at 37° C., read-out: Inhibition zone size, Corynebacterium diphtheriae (ATCC 27010)
  zone of inhibition at 30 µg/disc: 47 mm

## CC1(C)S[C@@H]2[C@H](NC(=O)Cc3ccccc3)C(=O)N2[C@H]1C(=O)O [Penicillin G, reference compound]
[1]; [7]
  Inhibition zone size, Nocardia brasiliensis (ATCC 19296): 0 mm
[2]; [7]
  Inhibition zone size, Mycobacterium phlei (ATCC 1298): 0 mm
[3]; [7]
  Inhibition zone size, Nocardia abscessus (BAA 279): 16 mm
[6]; [7]
  Inhibition zone size, Corynebacterium diphtheriae (ATCC 27010): 33 mm

## CCCCCCCCCCCCCCCCOP1(=O)OCC2COC(=O)C2=C(CCC)O1 (stereo not shown) [Cyclipostin T]
[1]; Nocardia brasiliensis, ATCC19296, 20 μg per disc, 48 hrs at 37° C., read-out: Inhibition zone size, Nocardia brasiliensis (ATCC 19296)
  zone of inhibition at 20 µg/disc: 38 mm
[2]; Mycolicibacterium phlei, ATCC1298, 20 μg per disc, 48 hrs at 37° C., read-out: Inhibition zone size, Mycobacterium phlei (ATCC 1298)
  zone of inhibition at 20 µg/disc: 30 mm
[3]; Nocardia abscessus, BAA279, 20 μg per disc, 48 hrs at 37° C., read-out: Inhibition zone size, Nocardia abscessus (BAA 279)
  zone of inhibition at 20 µg/disc: 9 mm
[4]; [8]
  minimum inhibitory concentration (MIC), S. aureus (control strain): >64
[5]; [8]
  minimum inhibitory concentration (MIC), Mycobacterium smegmatis (FH 6498): <0.5
[6]; Corynebacterium diphtheriae, ATCC27010, 20 μg per disc, 48 hrs at 37° C., read-out: Inhibition zone size, Corynebacterium diphtheriae (ATCC 27010)
  zone of inhibition at 20 µg/disc: 12 mm

## CCCCCCCCCCCCCCCCOP1(=O)OC[C@H]2COC(=O)C2=C(C)O1 (stereo partly shown) [Cyclipostin P]
[1]
  Inhibition zone size, Nocardia brasiliensis (ATCC 19296): 47 mm
[2]
  Inhibition zone size, Mycobacterium phlei (ATCC 1298): 35 mm
[3]
  Inhibition zone size, Nocardia abscessus (BAA 279): 28 mm
[4]
  minimum inhibitory concentration (MIC), S. aureus (control strain): >64
[5]
  minimum inhibitory concentration (MIC), Mycobacterium smegmatis (FH 6498): <0.5
[6]
  Inhibition zone size, Corynebacterium diphtheriae (ATCC 27010): 10 mm
